The nature of data set [1]: Measurement of optical properties of the agents (absorbance and fluorescence emission). Format: physicochemical. The conditions noted are these: in DMSO; for Abs (maximal absorbance wavelength) / Em (maximal fluorescence emission wavelength): compounds lacking nerve binding; for Absorbance Maximum / Emission Maximum / Stoke shift: nerve labeling agents. How it is done: The flurophores were dissolved in dimethylsulfoxide (DMSO) to make a 10 mM stock solution. An aliquot was taken to prepare a 10-100 μM flurophore solution in methanol, water, or DMSO. Optical measurements from the three solvents were taken. Absorbance spectra were measured using a PerkinElmer Lambda™ 20 UV/VIS spectrometer (PerkinElmer, Waltham, Mass.). Emission spectra were generated using a PTI steady state fluorimeter (Photon Technology International, Birmingham, N.H.). The stoke shift for nerve labeling agents on Table 3 are greater than 100 nm.

Data set [2] relates to sciatic nerve tissue sections. Put plainly: Ex vivo binding of nerve labelling agents to sciatic nerve tissue sections (fluorescence microscopy). The arrangement: species or system male Sprague Dawley (SD) rats. The conditions noted are these: 10 μM or 20 μM agent, 1 hour incubation, compared to control tissue without agent. The protocol: For ex vivo histological evaluation, various nerves including sciatic, femoral and trigeminal were harvested from male Sprague Dawley (SD) rats. Tissue was fixed by perfusion and/or post-fixed with formalin. Nerves were then flash-frozen using methanol and dry ice in OCT media. In some cases, polyvinylidene fluoride membranes were used to help keep the nerves vertical in the OCT media. Thin sections (5-10 microns) were sliced on a Leica microtome and stored in a −80° C. freezer prior to staining with antibodies or fluorescent dyes.
Nerve sections were prepared as described above. At the time of staining the slides were removed from −80° C. and allowed to come to room temperature. The nerves were fixed in neutral buffered formalin (10%) for 5 min after which the slides were rinsed in 1×PBS (3×, 5 min/each). 10 μM, or 20 μM each Formula II, Formula III, Formula IV, Formula V, or Formula VI was added onto the tissue in a formulation containing 10% Cremophor EL and 60% rat serum made in 1×PBS. The slides were incubated for 1 hour in a dark, moist/humid chamber at room temperature after which they were washed 3 times for 5 min/each in 1×PBS, cover-slipped, and imaged using the appropriate filter cube on a Zeiss Axioimager at 200× magnification.

Data set [3] has as its system nerve, muscle, and adipose tissue. Nature of the data set: Kinetics of clearance, tissue fluorescence after IV injection. Format: in vivo, adult male CD-1 mice. The conditions noted are these: 3.33 mg/kg IV; 0.5, 1, 2 and 3 hours post injection. The protocol: (§1) All procedures were approved by the Institutional Animal Care and Use Committee (IACUC) at GE Global Research. Male CD-1 mice ranging in body weight from 25-30 g and SD rats (250-350 g) were purchased from Charles River Laboratories (Wilmington, Mass.) and housed at 22-23° C. on a 12-hour light/dark cycle. On the day of the experiment, rodents were anesthetized using 2-4% isofluorane and given a single tail vein injection of either imaging agent in formulation or formulation excipients alone. […]
(§2) In vivo imaging consisted of detailed fluorescence emission characterization and surgical imaging using a Zeiss Lumar™ imaging system (Carl Zeiss Inc. Thornwood, N.Y.) with coupled multispectral imaging camera (Nuance camera; CRI, Woburn, Mass.) or AxioCam™ (Carl Zeiss Inc. Thornwood, N.Y.). […] A variety of excitation filters were used to characterize the in vivo fluorescence of these agents. […] Fluorescence emission data was then recorded at wavelengths ranging from 420 to 720 nm at 10 nm steps using the attached CRI-Nuance™ camera (Cambridge Research and Instrumentation Inc., Wobur, Mass.) or using a 500 nm-long pass filter on the AxioCam. Fluorescence images were collected using exposure times of 5 seconds in both control and agent injected animals for normalization. […]

A further data set relates to nerves. Nature of the data set: Pre-clinical fluorescence in vivo imaging of nerves in a large rodent model. The conditions noted are these: 0.5 hours post injection. Further details: species or system Sprague Dawley (SD) rat. The protocol: as §1, §2

For the compound `CC1(C)OC(=O)C(C#N)=C1/C=C/c1ccc(NCCO)cc1` [B], in data set [1], the “Abs (maximal absorbance wavelength)” value is on record as 494 nm and the “Em (maximal fluorescence emission wavelength)” value stood at 578 nm.
Regarding `CC1(C)OC(=O)C(C#N)=C1/C=C/c1ccc(N)cc1` [A], in data set [1], the “Abs (maximal absorbance wavelength)” value is 480 nm and the “Em (maximal fluorescence emission wavelength)” value was 562 nm.
In the case of `COc1cc(/C=C/C2=CC(=C(C#N)C#N)C=C(C)O2)ccc1N` [VI], the “Ex vivo binding to sciatic nerve tissue sections (fluorescence signal)” value (from here on “Ex vivo binding”) in data set [2] is “fluorescence signal is evident”.
Same read-out and setting: next, `COc1cc(/C=C/C2=CC(=C(C#N)C#N)C=C(C)O2)ccc1NCc1ccc(N)cc1` [IV]: “fluorescence signal is evident”; `CC1=CC(=C(C#N)C#N)C=C(/C=C/c2ccc(N(CCO)CCO)cc2)O1` [III]: “fluorescence signal is evident”.
In the case of `COc1cc(/C=C/C2=CC(=C(C#N)C#N)C=C(C)O2)ccc1N` [Formula VI], in data set [1], the “Absorbance Maximum” value is on record as 478 nm, the “Emission Maximum” value is on record as 631 nm and the Stoke shift is reported as 153 nm.
On to `CC1=CC(=C(C#N)C#N)C=C(/C=C/c2ccc(N)cc2)O1` [Formula II], for which, in data set [1], the “Absorbance Maximum” value turned out to be 478 nm, the “Emission Maximum” value is 607 nm and the Stoke shift was 129 nm. Further, the “Ex vivo binding” value in data set [2] was “fluorescence signal is evident”. In addition, the “Maximum tissue-specific fluorescence intensity over time post injection (nerve, muscle, adipose tissue)” value in data set [3] was “decreases with increasing time post injection”. Further, in the data set with nerves (8.33 mg/kg IV), the “Nerve visibility in fluorescence imaging” value is given as “Visible nerves present”. Besides, the “Nerve visibility in fluorescence imaging” value in the data set with nerves (16.67 mg/kg IV) is “Visible nerves present”.
Turning to `CC1=CC(=C(C#N)C#N)C=C(/C=C/c2ccc(NCCO)cc2)O1` [Formula V], in data set [1], the “Absorbance Maximum” value is reported as 484 nm, the “Emission Maximum” value was determined as 618 nm and the Stoke shift stood at 134 nm.
Regarding `CC1(C)OC(=O)C(C#N)=C1/C=C/c1ccc(N(CCO)CCO)cc1` [C], in data set [1], the “Abs (maximal absorbance wavelength)” value was found to be 505 nm and the “Em (maximal fluorescence emission wavelength)” value is on record as 591 nm.
For `CC1=CC(=C(C#N)C#N)C=C(/C=C/c2ccc(NCCO)cc2)O1` [V], in data set [2], the “Ex vivo binding” value is recorded as “fluorescence signal is evident”.
As for `CC1(C)OC(=C(C#N)C#N)C(C#N)=C1/C=C/c1ccc(N)cc1` [D], in data set [1], the “Abs (maximal absorbance wavelength)” value is 574 nm and the “Em (maximal fluorescence emission wavelength)” value is 621 nm.
For the compound `CC1(C)OC(=C(C#N)C#N)C(C#N)=C1/C=C/c1ccc(NCCO)cc1` [E], in data set [1], the “Abs (maximal absorbance wavelength)” value is 590 nm and the “Em (maximal fluorescence emission wavelength)” value is listed as 636 nm.
As for `COc1cc(/C=C/C2=CC(=C(C#N)C#N)C=C(C)O2)ccc1NCc1ccc(N)cc1` [Formula IV], in data set [1], the “Absorbance Maximum” value is reported as 492 nm, the “Emission Maximum” value is reported as 642 nm and the Stoke shift worked out at 150 nm.
`CC1(C)OC(=C(C#N)C#N)C(C#N)=C1/C=C/c1ccc(N(CCO)CCO)cc1` [F]: in data set [1], the “Abs (maximal absorbance wavelength)” value is listed as 596 nm and the “Em (maximal fluorescence emission wavelength)” value came out at 656 nm.
For the compound `CC1=CC(=C(C#N)C#N)C=C(/C=C/c2ccc(N(CCO)CCO)cc2)O1` [Formula III], in data set [1], the “Absorbance Maximum” value was determined as 491 nm, the “Emission Maximum” value is given as 623 nm and the Stoke shift came to 132 nm.

These data come from patent publication US9040019B2, “Methods of detecting myelin basic protein” (General Electric Company, priority 2012, dated 2015).
